We go through two compounds from PMC4464473, “Synthesis of multivalent carbohydrate mimetics with aminopolyol end groups and their evaluation as L-selectin inhibitors” (Beilstein Journal of Organic Chemistry, 2015).

In the assay the target is T1, L-selectin (Homo sapiens, UniProt P14151).
T1 construct: gene SELL
T1 sequence (P14151 39-372): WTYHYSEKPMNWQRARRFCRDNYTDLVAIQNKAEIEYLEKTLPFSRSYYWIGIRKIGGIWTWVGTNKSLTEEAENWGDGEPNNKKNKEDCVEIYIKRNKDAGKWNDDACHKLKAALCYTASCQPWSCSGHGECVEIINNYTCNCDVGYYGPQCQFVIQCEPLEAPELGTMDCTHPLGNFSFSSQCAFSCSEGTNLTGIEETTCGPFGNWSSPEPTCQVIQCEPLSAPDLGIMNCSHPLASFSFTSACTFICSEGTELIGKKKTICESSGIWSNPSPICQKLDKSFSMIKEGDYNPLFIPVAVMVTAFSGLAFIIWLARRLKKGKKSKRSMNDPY
As to the kind of experiment: competitive SPR binding assay. A general note: In SPR one partner is held on a chip, and binding of the other changes the refractive index at the surface.

pIC50: −log10 of the molar value.

Consider `O=C(NC(COS(=O)(=O)O)COS(=O)(=O)O)c1ccc(C(=O)NC(COS(=O)(=O)O)COS(=O)(=O)O)cc1` [compound 32, O-sulfated divalent amide 32], for which the pIC50 (commonly the IC50 on a negative log10 scale, so that one unit is a factor of ten) is 6.00.

`CC1(C)O[C@H](COS(=O)(=O)O)[C@H](NC(=O)c2ccc(-c3cc(-c4ccc(C(=O)N[C@@H]5[C@@H](OS(=O)(=O)O)[C@H](COS(=O)(=O)O)C(C)(C)O[C@@H]5COS(=O)(=O)O)cc4)cc(-c4ccc(C(=O)N[C@@H]5[C@@H](OS(=O)(=O)O)[C@H](COS(=O)(=O)O)C(C)(C)O[C@@H]5COS(=O)(=O)O)cc4)c3)cc2)[C@@H](OS(=O)(=O)O)[C@@H]1COS(=O)(=O)O` [compound 34, O-sulfated trivalent amide 34]: the pIC50 was 5.70.
